{"source": "ChEMBL document CHEMBL1201862", "about": "“PubChem BioAssay data set” (2004)", "key": {"[1]": {"biological_target": "T1, Replicative DNA helicase DnaB (Mycobacterium tuberculosis, UniProt P9WMR3)", "T1 sequence (P9WMR3 whole entry)": "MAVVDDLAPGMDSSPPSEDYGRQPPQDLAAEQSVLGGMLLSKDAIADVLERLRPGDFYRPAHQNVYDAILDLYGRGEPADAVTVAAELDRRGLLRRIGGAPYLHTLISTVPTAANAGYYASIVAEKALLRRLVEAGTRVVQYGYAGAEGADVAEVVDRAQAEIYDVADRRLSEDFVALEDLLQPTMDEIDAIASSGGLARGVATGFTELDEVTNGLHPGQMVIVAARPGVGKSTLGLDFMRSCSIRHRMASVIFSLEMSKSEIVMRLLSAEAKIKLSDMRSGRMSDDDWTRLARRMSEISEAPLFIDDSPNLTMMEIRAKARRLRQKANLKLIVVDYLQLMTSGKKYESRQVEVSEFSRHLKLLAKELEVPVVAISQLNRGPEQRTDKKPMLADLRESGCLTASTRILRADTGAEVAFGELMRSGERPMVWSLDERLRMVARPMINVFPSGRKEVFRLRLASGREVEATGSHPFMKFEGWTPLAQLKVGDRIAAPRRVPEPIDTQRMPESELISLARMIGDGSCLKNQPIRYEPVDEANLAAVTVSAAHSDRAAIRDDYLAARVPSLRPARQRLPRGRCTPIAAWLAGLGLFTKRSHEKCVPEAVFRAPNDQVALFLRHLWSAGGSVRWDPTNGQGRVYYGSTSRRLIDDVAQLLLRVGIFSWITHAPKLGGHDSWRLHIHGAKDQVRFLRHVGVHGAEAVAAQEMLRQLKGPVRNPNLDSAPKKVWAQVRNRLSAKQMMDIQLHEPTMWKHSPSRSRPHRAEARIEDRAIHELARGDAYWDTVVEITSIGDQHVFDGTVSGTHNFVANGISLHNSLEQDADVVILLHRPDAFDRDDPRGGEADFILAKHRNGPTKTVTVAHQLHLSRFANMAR", "assay": "DnaB intein splicing inhibitors, dose response, biochemical, cell-free fluorescence (AID 449749)", "format": "functional"}, "Protein RecA": {"biological_target": "T2, Protein RecA (Mycobacterium tuberculosis, UniProt P9WHJ3)", "T2 sequence (P9WHJ3 whole entry)": "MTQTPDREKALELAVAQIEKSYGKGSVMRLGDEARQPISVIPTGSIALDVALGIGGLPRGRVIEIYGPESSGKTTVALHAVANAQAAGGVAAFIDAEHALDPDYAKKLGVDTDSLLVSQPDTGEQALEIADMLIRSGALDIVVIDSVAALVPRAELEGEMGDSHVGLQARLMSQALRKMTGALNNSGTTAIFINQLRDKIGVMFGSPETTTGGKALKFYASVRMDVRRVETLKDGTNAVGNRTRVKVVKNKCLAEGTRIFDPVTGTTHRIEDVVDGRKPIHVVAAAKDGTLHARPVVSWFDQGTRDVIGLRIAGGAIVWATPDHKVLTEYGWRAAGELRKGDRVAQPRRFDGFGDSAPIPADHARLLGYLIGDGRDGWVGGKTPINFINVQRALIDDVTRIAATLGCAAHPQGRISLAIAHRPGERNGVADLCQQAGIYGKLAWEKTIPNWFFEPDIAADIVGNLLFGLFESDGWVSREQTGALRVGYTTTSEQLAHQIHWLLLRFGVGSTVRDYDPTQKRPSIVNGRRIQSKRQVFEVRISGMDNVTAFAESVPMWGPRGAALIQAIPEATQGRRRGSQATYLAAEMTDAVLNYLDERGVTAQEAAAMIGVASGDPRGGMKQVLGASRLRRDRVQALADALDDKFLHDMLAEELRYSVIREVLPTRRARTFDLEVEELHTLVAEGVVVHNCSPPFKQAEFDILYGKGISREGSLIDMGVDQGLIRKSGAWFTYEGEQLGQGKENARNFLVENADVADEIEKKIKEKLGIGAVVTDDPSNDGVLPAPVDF", "assay": "Fluorescence Cell-Free Homogeneous Dose Retest to Identify Inhibitors of RecA-Intein Splicing Activity. [Related pubchem assays (depositor defined):AID2097, AID2223, AID489010, AID492950]", "format": "functional"}, "[2]": {"biological_target": "T3, Glutathione-S-transferase (Schistosoma japonicum, UniProt Q26513)", "T3 sequence (Q26513 whole entry)": "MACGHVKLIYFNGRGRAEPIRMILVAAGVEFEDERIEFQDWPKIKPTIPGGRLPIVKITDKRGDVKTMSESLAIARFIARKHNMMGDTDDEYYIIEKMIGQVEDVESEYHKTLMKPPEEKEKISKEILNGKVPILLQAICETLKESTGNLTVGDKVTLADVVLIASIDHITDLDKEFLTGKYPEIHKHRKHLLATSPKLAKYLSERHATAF", "assay": "GST-antibody interaction or FRET quenching – biochemical, TR-FRET, artefact control for Vif-APOBEC3G degradation inhibitor project, dose response (AID 1117362)", "format": "functional"}, "[3]": {"assay": "viability loss in Vero cells – cytotoxicity control for Vif-APOBEC3G degradation inhibitor project, dose response (AID 1117358)", "format": "functional", "conditions": "Vero"}, "[4]": {"test_system": "Streptococcus sp. 'group A'", "assay": "Streptococcus pyogenes SK(-)GAS viability under kanamycin – luminescence, BacTiterGlo, confirmation, counter-screen for streptokinase expression inhibitor project, dose response (AID 1900)", "format": "functional, organism-based"}, "Streptokinase A": {"biological_target": "T4, Streptokinase A (Streptococcus pyogenes serotype M1, UniProt P10520)", "T4 sequence (P10520 whole entry)": "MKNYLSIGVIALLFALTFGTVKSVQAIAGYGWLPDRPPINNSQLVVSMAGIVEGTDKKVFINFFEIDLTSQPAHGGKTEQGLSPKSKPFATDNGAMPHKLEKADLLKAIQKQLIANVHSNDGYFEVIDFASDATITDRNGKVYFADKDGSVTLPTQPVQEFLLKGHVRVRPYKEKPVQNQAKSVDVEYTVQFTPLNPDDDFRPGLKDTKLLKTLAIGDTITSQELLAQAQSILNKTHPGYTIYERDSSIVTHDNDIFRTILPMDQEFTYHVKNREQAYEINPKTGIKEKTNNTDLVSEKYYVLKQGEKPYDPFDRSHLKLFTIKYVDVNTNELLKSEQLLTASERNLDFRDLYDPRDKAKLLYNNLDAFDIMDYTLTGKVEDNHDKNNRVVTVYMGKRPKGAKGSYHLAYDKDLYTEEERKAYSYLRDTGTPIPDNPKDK", "assay": "viability-normalized secreted streptokinase activity reduction – plasminogen activation absorbance, OD405, dose response (AID 1914)", "format": "functional, Streptococcus pyogenes M1 GAS"}, "Streptococcus": {"test_system": "Streptococcus", "assay": "GAS UMAA2166 growth inhibition – luminescence, BacTiterGlo, counter-screen for streptokinase expression inhibitor project, dose response (AID 1915);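 also: potency for reduction of bacterial viability or growth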", "format": "functional, organism-based"}, "[5]": {"biological_target": "T5, Mannose-6-phosphate isomerase (Homo sapiens, UniProt P34949)", "T5 sequence (P34949 whole entry)": "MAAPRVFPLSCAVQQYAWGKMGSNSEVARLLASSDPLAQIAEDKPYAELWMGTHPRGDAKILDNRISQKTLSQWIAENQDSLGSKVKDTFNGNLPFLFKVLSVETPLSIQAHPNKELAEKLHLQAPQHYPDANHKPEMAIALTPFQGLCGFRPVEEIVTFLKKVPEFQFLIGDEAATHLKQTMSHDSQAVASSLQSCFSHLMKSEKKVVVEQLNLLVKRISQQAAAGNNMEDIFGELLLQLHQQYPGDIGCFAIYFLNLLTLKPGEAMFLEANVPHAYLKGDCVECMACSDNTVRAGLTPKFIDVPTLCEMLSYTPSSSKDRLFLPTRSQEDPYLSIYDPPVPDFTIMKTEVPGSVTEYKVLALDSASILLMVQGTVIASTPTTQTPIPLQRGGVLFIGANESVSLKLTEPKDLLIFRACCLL", "assay": "MPI inhibition at elevated mannose 6-phosphate – biochemical, fluorescence intensity, high mannose 6-phosphate, primary screen (AID 1220)"}, "[6]": {"assay": "CellTiter-Glo luminescence survival assay, SW480 colon tumor line, concentration-response curve, half-maximal inhibitory concentration (AID 1117338)", "format": "functional"}, "[7]": {"assay": "RKO cell viability reduction, dose response, CellTiter-Glo luminescence (AID 1117322)", "format": "functional"}, "[8]": {"assay": "cytotoxicity toward HCT116 cells – cell-based, CellTiter-Glo luminescence, IC50, dose response (AID 1117332)", "format": "functional", "conditions": "HCT-116"}, "[9]": {"assay": "SNU-C1 cell viability reduction, dose response, CellTiter-Glo luminescence (AID 1117323)", "format": "functional, cell-based"}, "[10]": {"assay": "cytotoxicity toward Colo320 cells – cell-based, CellTiter-Glo luminescence, IC50, dose response (AID 1117334)", "format": "functional", "conditions": "COLO 320"}, "[11]": {"assay": "cytotoxicity toward HT-29 cells – cell-based, CellTiter-Glo luminescence, IC50, dose response (AID 1117330)", "format": "functional"}, "[12]": {"assay": "Reduced DLD-1 viability, concentration-response, CellTiter-Glo luminescence (AID 1117352)", "format": "functional"}, "[13]": {"biological_target": "Disintegrin and metalloproteinase domain-containing protein 17 (Homo sapiens, UniProt P78536)", "sequence (P78536 whole entry, the tested form may be a part)": "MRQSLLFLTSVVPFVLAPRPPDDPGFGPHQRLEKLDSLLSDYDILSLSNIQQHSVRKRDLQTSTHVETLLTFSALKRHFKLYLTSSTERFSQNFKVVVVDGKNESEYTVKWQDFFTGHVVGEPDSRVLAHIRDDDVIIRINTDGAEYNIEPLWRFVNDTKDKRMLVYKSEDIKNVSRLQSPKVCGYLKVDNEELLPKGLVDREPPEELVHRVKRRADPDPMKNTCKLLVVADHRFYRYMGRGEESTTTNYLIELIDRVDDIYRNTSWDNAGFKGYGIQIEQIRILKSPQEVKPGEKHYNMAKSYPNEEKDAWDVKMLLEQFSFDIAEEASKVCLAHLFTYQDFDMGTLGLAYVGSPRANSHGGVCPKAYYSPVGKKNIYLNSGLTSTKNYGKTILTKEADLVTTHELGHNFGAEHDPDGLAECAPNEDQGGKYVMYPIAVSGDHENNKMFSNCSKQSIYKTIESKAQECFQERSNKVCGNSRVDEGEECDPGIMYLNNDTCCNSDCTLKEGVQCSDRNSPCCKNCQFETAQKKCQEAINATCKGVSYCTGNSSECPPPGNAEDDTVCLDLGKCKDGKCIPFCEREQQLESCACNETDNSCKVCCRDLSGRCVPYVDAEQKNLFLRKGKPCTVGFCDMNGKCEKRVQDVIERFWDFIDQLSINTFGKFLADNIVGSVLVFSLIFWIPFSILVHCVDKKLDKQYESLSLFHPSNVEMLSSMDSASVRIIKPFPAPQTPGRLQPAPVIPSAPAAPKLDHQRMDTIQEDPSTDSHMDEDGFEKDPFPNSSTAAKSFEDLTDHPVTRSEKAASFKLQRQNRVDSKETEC", "assay": "exosite inhibitors of ADAM17, dose response, biochemical (AID 743260)"}, "[14]": {"assay": "inhibition of ADAM10 peptide cleavage – biochemical, FRET peptide substrate, recombinant human ADAM10, selectivity assay for ADAM17 exosite inhibitor project, dose response (AID 743259);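 also: ADAM10 enzyme cleaving a FRET peptide substrate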"}, "[15]": {"assay": "Luminescence Cell-Based Dose Retest to Confirm Inhibitors of Cancer Stem Cells. [Related pubchem assays (depositor defined):AID2717, AID2721]", "format": "functional", "conditions": "Homo sapiens"}, "Paired box protein Pax-8": {"biological_target": "Paired box protein Pax-8 (Homo sapiens, UniProt Q06710)", "sequence (Q06710 whole entry)": "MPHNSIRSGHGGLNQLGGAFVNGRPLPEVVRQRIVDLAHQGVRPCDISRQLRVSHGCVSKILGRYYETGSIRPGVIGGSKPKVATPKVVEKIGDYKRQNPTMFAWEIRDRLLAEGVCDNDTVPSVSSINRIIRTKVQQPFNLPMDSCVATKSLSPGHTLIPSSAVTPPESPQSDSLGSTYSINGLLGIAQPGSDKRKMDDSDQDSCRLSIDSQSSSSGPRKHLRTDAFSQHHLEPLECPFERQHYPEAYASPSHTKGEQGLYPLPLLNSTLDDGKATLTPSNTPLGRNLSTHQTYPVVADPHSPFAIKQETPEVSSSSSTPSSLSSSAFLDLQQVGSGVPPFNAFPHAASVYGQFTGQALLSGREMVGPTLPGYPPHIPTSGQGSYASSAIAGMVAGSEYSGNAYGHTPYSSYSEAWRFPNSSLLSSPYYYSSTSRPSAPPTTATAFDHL", "assay": "PAX8 transcriptional activity inhibition in RMG-I – RMG-I cells, luciferase, cherry-pick, dose response (AID 687027);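 also: luciferase reporter driven by Pax8 target thyroperoxidase promoter measured by SteadyGlo luminescence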", "format": "functional, cell-based"}, "[16]": {"assay": "reduced cellular PGC1a acetyl-lysine signal – cell-based, cherry-picked samples, dose response (AID 720514);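 also: potency may reflect raised or lowered acetylation signal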", "format": "functional"}, "[17]": {"assay": "OVCAR8 cell viability loss – plate reader, dry powder samples, PAX8 project, dose response (AID 743197)", "format": "functional, cell-based", "conditions": "OVCAR-8"}}, "note": "Calls of active or inactive are those of the source.", "data": [{"smiles": "CCN(CC)c1ccc2c(c1)CCCN2", "values": [{"measurement": "AC50", "setting": "[1]", "result": "> 120 µM (inactive)"}, {"measurement": "EC50", "setting": "Protein RecA", "result": "> 380 µM (inconclusive)"}, {"measurement": "IC50", "setting": "[2]", "result": "48.6 µM (active)"}, {"measurement": "CC50", "setting": "[3]", "result": "> 40 µM (active)"}]}, {"smiles": "O=c1c2c(nc(NCCO)n1CC1CCCCC1)-c1ccccc1CC21CCCC1", "values": [{"measurement": "EC50", "setting": "[4]", "result": "2.67 µM (active)"}, {"measurement": "EC50", "setting": "Streptokinase A", "result": "3.48 µM (active)"}, {"measurement": "EC50", "setting": "Streptococcus", "result": "19.3 µM (inconclusive)"}, {"measurement": "CC50", "setting": "[3]", "result": "> 40 µM (active)"}]}, {"smiles": "O=[N+]([O-])c1c(NCCO)cc(N2CCCCC2)c2nonc12", "values": [{"measurement": "IC50", "setting": "[5]", "result": "> 50 µM (not active)"}]}, {"smiles": "CC(C)NCC(O)COc1ccc(CCOCC2CC2)cc1", "note": "(centres undefined) [BETAXOLOL]", "values": [{"measurement": "IC50", "setting": "[6]", "result": "> 20 µM (inactive)"}, {"measurement": "IC50", "setting": "[7]", "result": "> 20 µM (inactive)"}, {"measurement": "IC50", "setting": "[8]", "result": "> 20 µM (inactive)"}, {"measurement": "IC50", "setting": "[9]", "result": "> 20 µM (inactive)"}, {"measurement": "IC50", "setting": "[10]", "result": "6.17 µM (inactive)"}, {"measurement": "IC50", "setting": "[11]", "result": "> 20 µM (inactive)"}, {"measurement": "IC50", "setting": "[12]", "result": "> 20 µM (inactive)"}]}, {"smiles": "CCOC(=O)C1=CN(Cc2cccc(F)c2)S(=O)(=O)NC1c1ccc2ccccc2c1", "note": "(centres undefined)", "values": [{"measurement": "IC50", "setting": "[13]", "result": "> 69.5 µM (inactive)"}, {"measurement": "IC50", "setting": "[14]", "result": "> 7.73 µM (active)"}]}, {"smiles": "O=S(=O)(c1ccccc1)N(CC(O)Cn1c2ccccc2c2ccccc21)c1ccccc1", "note": "(centres undefined)", "values": [{"measurement": "AC50", "setting": "[15]", "result": "3.66 µM (active)"}, {"measurement": "IC50", "setting": "[13]", "result": "> 69.5 µM (inactive)"}, {"measurement": "IC50", "setting": "[14]", "result": "> 69.5 µM (inactive)"}]}, {"smiles": "C[C@@H]1CCCCO[C@H](CN(C)Cc2ccc(Cl)c(Cl)c2)[C@H](C)CN([C@@H](C)CO)C(=O)c2cc(NC(=O)Nc3ccc(F)cc3)ccc2O1", "values": [{"measurement": "AC50", "setting": "Paired box protein Pax-8", "result": "11.3 µM (active)"}, {"measurement": "AC50", "setting": "[16]", "result": "14.3 µM (active)"}, {"measurement": "AC50", "setting": "[17]", "result": "65.1 µM (active)"}]}]}
